Source: US11648253B2, “Thienopyrimidinone NMDA receptor modulators and uses thereof” (Novartis AG, priority 2015, dated 2023)

Each compound was assayed against T1, NMDA receptor (GRIN1 / GRIN2B, NR2B) expressed in HEK293 cells (Homo sapiens, UniProt Q05586+Q13224) (assay: Reversal of Ro 25-6981-mediated suppression of Ca2+ response (fluo-8 fluorescence, FDSS) in HEK293 cells expressing GRIN1/GRIN2B). Details: % reversal of Ro 25-6981 suppression of co-agonist (glutamate/glycine) Ca2+ response, test concentration not given.
T1 construct: host or cells: HEK293
Type: cell-based
Procedure: HEK293 cells with constructs conferring stable expression of the GRIN1 gene and tetracycline-inducible expression of the GRIN2B gene (Chantest, Cleveland, Ohio) are grown to ˜75% confluence in tissue culture flasks at 37° C., 5% CO2. NR2B expression is induced by overnight incubation with 0.3-0.4 μg/ml tetracycline in the presence of 2.5 mM ARL-15896 at 37° C., followed by moving to 30° C. for 3-5 hours. Cells are next harvested using TripleExpressm (Life Technologies, Carlsbad, Calif.) according to the manufacturer's instructions, first removing culture medium, rinsing with Dulbecco's phosphate buffered saline (Ca^2+ and Mg^2+-free), and then adding the TripleExpressm reagent. Harvested cells are spun down, washed twice in Ca^2+- and Mg^2+-free Hank's Balanced Salt Solution with 20 mM HEPES and 10 mM glucose, pH 7.4 (HHnoCa solution), and counted with viability assessed using Trypan Blue. Cells are loaded with fluo-8 Ca^2+-sensitive dye in HHnoCa solution according to the manufacturer's directions (AAT Bioquest, Sunnyvale, Calif.), incubating at 37° C. for 20 minutes followed by 25 minutes at 22-25° C. After a wash in HHnoCa to remove extracellular dye, cells are resuspended in HHnoCa and plated at […] cells per well in a volume of 25 μl/well in 384 well black-wall, clear bottom plates (Hamamatsu, Middlesex, N.J.). Plates are then centrifuged to create a monolayer in the wells and stored in the dark until used.
Prior to analysis, compound plates are prepared with each compound at 6× the final desired concentration. From stock solutions at 10 mM in 100% DMSO, compounds are spotted in the desired amounts using an ECHO liquid handler (Labcyte, Sunnyvale, Calif.) into wells of a 384-well plate and then diluted with 50 μl of HHnoCa containing 750 nM Ro 25-6981 and 120 μM 5,7-dichlorokynurenic acid (both purchased from Tocris Bioscience (Bristol, England) and maintained as 10 mM stock solutions in 100% DMSO). To insure complete compound dissolution, these plates are then placed in an orbital shaker for at least one hour. Also prepared prior to the assay is a co-agonist plate containing HHnoCa with 240 μM glutamate, 2.4 mM glycine, and 7.2 mM CaCl2, which is 2.4× the desired final concentration of each reagent. Both the compound plate and co-agonist plate are 384-well polypropylene plates from Thermo Fisher Scientific, Waltham, Mass.
The assay is performed by first adding 10 μl solution from each well of the compound plate described above to the cell plate using a CyBiWell liquid handler (Analytik Jena AG, Jena, Germany), followed by 10 minutes pre-incubation in the dark. Cell plates are then loaded onto a Hamamatsu FDSS 6000 plate reader. After a 30-second baseline, 25 μl is added to each well from the co-agonist plate, and the fluorescence signal is recorded for another 2 minutes. FDSS software applies shading and autofluorescence correction, and resultant raw fluorescence measurements are exported in the form of a fluorescence ratio for each well to its own reading at time zero in the experiment. In each plate, negative control wells consist of wells where Ro 25-6981 and 5,7 dichlorokynurenic acid are present and co-agonist is applied in the absence of any added assay compound. Under these conditions, the Ca^2+ response to co-agonist is suppressed. Positive control wells also present in each plate contain 5,7 dichlorokynurenic acid but no Ro 25-6981, so that co-agonist addition results in a large Ca^2+ response. Compounds tested are evaluated on the basis of their ability to reverse the suppression of the Ca^2+ response mediated by Ro 25-6981, which is quantified as % reversal=100*(R−Rneg)/(Rpos−Rneg) where R is the fluorescence ratio for the test compound at the end of the experiment and Rneg and Rpos are the end ratios for the negative and positive controls, respectively. […]

T1 sequence (Q13224 27-1484, other chains not shown): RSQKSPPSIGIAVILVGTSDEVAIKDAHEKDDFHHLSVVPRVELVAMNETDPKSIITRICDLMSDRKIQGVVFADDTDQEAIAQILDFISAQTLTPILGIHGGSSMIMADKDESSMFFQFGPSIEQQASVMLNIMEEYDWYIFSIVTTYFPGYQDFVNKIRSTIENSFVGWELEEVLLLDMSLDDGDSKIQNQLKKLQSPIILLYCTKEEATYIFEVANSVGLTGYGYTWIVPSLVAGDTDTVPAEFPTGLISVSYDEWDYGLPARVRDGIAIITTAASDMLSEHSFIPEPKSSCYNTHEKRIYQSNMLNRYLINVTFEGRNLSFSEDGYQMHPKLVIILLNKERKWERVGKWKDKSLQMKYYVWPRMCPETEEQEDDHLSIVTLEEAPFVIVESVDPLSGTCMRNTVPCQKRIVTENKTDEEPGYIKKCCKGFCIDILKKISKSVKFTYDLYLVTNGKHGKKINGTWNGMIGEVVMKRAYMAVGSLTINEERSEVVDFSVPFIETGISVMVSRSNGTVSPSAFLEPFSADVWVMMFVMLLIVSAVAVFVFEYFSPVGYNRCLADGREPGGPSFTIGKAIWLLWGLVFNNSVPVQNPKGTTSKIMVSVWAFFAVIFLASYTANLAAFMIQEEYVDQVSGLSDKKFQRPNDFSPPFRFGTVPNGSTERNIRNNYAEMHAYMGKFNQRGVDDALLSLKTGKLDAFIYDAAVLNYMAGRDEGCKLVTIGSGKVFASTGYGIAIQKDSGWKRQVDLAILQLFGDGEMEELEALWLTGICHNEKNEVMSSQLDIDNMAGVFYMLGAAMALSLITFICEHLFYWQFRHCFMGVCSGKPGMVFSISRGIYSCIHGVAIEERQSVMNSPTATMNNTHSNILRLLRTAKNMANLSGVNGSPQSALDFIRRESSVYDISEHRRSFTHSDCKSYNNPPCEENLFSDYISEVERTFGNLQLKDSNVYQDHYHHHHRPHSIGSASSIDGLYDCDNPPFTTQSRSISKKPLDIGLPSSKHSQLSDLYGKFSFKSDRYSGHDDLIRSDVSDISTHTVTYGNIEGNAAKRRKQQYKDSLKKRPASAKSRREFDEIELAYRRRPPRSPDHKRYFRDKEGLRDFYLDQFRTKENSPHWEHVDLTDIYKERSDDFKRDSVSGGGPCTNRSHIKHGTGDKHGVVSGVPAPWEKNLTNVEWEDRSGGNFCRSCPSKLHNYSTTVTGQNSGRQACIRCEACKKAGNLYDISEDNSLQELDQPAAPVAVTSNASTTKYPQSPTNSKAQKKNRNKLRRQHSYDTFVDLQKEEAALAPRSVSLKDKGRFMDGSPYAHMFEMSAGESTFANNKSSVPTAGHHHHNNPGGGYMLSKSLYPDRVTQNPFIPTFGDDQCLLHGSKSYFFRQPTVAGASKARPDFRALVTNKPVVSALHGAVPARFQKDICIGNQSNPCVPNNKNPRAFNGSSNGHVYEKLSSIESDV

With `O=C(Cn1cnc2scc(-c3ccc(Cl)cc3)c2c1=O)N1CCC1` [Example 1, 3-[2-(azetidin-1-yl)-2-oxoethyl]-5-(4-chlorophenyl)-3H,4H-thieno[2,3-d]pyrimidin-4-one] as the compound, how does the “Avg Response Recovered (%)” value read?
Its value is 2%.

How did the “Avg Response Recovered (%)” value turn out when `O=C(Cn1cnc2scc(-c3ccc(Cl)cc3)c2c1=O)N1CC(F)(F)C1` [Example 2, 5-(4-chlorophenyl)-3-[2-(3,3-difluoroazetidin-1-yl)-2-oxoethyl]-3H,4H-thieno[2,3-d]pyrimidin-4-one] was run?
Its value is 7%.

For `O=C(Cn1cnc2scc(-c3ccc(Cl)cc3)c2c1=O)N1CC2(COC2)C1` [Example 3, 5-(4-chlorophenyl)-3-(2-{2-oxa-6-azaspiro[3.3]heptan-6-yl}-2-oxoethyl)-3H,4H-thieno[2,3-d]pyrimidin-4-one], which “Avg Response Recovered (%)” value is on record?
Its value is 0%.

How did the “Avg Response Recovered (%)” value turn out when `COC1CN(C(=O)Cn2cnc3scc(-c4ccc(Cl)cc4)c3c2=O)C1` [Example 4, 5-(4-chlorophenyl)-3-[2-(3-methoxyazetidin-1-yl)-2-oxoethyl]-3H,4H-thieno[2,3-d]pyrimidin-4-one] was run?
Its value is 1%.

Which “Avg Response Recovered (%)” value does the source give for `O=C(Cn1cnc2scc(-c3ccc(C(F)(F)F)cc3)c2c1=O)N1CC(F)(F)C1` [Example 5, 3-[2-(3,3-difluoroazetidin-1-yl)-2-oxoethyl]-5-[4-(trifluoromethyl)phenyl]-3H,4H-thieno[2,3-d]pyrimidin-4-one] here?
The value was 11%.

Which “Avg Response Recovered (%)” value does the source give for `O=C(Cn1cnc2scc(-c3ccc(Cl)c(C(F)(F)F)c3)c2c1=O)N1CC(F)(F)C1` [Example 6, 5-[4-chloro-3-(trifluoromethyl)phenyl]-3-[2-(3,3-difluoroazetidin-1-yl)-2-oxoethyl]-3H,4H-thieno[2,3-d]pyrimidin-4-one] here?
The value was 62%.

`O=C(Cn1cnc2scc(-c3ccc(F)cc3)c2c1=O)N1CC(F)(F)C1` [Example 7, 3-[2-(3,3-difluoroazetidin-1-yl)-2-oxoethyl]-5-(4-fluorophenyl)-3H,4H-thieno[2,3-d]pyrimidin-4-one] was tested. Which “Avg Response Recovered (%)” value did it give?
The value was 6%.

For `Cc1ccc(-c2csc3ncn(CC(=O)N4CC(F)(F)C4)c(=O)c23)cc1` [Example 8, 3-[2-(3,3-difluoroazetidin-1-yl)-2-oxoethyl]-5-(4-methylphenyl)-3H,4H-thieno[2,3-d]pyrimidin-4-one], which “Avg Response Recovered (%)” value is on record?
The value was 5%.

How did the “Avg Response Recovered (%)” value turn out when `O=C(Cn1cnc2scc(-c3ccc(F)c(Cl)c3)c2c1=O)N1CC(F)(F)C1` [Example 9, 5-(3-chloro-4-fluorophenyl)-3-[2-(3,3-difluoroazetidin-1-yl)-2-oxoethyl]-3H,4H-thieno[2,3-d]pyrimidin-4-one] was run?
The value was 49%.

With `O=C(Cn1cnc2scc(-c3ccc(Cl)c(Cl)c3)c2c1=O)N1CC(F)(CF)C1` [Example 10, 5-(3,4-dichlorophenyl)-3-{2-[3-fluoro-3-(fluoromethyl)azetidin-1-yl]-2-oxoethyl}-3H,4H-thieno[2,3-d]pyrimidin-4-one] as the compound, how does the “Avg Response Recovered (%)” value read?
The value was 121%.

How did the “Avg Response Recovered (%)” value turn out when `CC1(F)CN(C(=O)Cn2cnc3scc(-c4ccc(Cl)c(Cl)c4)c3c2=O)C1` [Example 11, 5-(3,4-dichlorophenyl)-3-[2-(3-fluoro-3-methylazetidin-1-yl)-2-oxoethyl]-3H,4H-thieno[2,3-d]pyrimidin-4-one] was run?
Its value is 152%.

How did the “Avg Response Recovered (%)” value turn out when `CCC1(F)CN(C(=O)Cn2cnc3scc(-c4ccc(F)c(Cl)c4)c3c2=O)C1` [Example 12, 5-(3-chloro-4-fluorophenyl)-3-[2-(3-ethyl-3-fluoroazetidin-1-yl)-2-oxoethyl]-3H,4H-thieno[2,3-d]pyrimidin-4-one] was run?
The value was 149%.

`O=C(Cn1cnc2scc(-c3ccc(F)c(Cl)c3)c2c1=O)N1CC(F)(CF)C1` [Example 13, 5-(3-chloro-4-fluorophenyl)-3-{2-[3-fluoro-3-(fluoromethyl)azetidin-1-yl]-2-oxoethyl}-3H,4H-thieno[2,3-d]pyrimidin-4-one] was tested. Which “Avg Response Recovered (%)” value did it give?
Its value is 141%.

Which “Avg Response Recovered (%)” value does the source give for `CC1(F)CN(C(=O)Cn2cnc3scc(-c4ccc(F)c(Cl)c4)c3c2=O)C1` [Example 14, 5-(3-chloro-4-fluorophenyl)-3-[2-(3-fluoro-3-methylazetidin-1-yl)-2-oxoethyl]-3H,4H-thieno[2,3-d]pyrimidin-4-one] here?
The value was 165%.

Which “Avg Response Recovered (%)” value does the source give for `CCC1(F)CN(C(=O)Cn2cnc3scc(-c4ccc(Cl)c(Cl)c4)c3c2=O)C1` [Example 15, 5-(3,4-dichlorophenyl)-3-[2-(3-ethyl-3-fluoroazetidin-1-yl)-2-oxoethyl]-3H,4H-thieno[2,3-d]pyrimidin-4-one] here?
The value was 103%.

`O=C(Cn1cnc2sc(-c3ccc(Cl)cc3)cc2c1=O)N1CCC1` [Example 16, 3-[2-(azetidin-1-yl)-2-oxoethyl]-6-(4-chlorophenyl)-3H,4H-thieno[2,3-d]pyrimidin-4-one] was tested. Which “Avg Response Recovered (%)” value did it give?
Its value is 23%.

How did the “Avg Response Recovered (%)” value turn out when `COC1CN(C(=O)Cn2cnc3sc(-c4ccc(Cl)cc4)cc3c2=O)C1` [Example 17, 6-(4-chlorophenyl)-3-[2-(3-methoxyazetidin-1-yl)-2-oxoethyl]-3H,4H-thieno[2,3-d]pyrimidin-4-one] was run?
Its value is 24%.

For `Cc1sc2ncn(CC(=O)N3CC(F)(F)C3)c(=O)c2c1-c1ccc(Cl)cc1` [Example 18, 5-(4-chlorophenyl)-3-[2-(3,3-difluoroazetidin-1-yl)-2-oxoethyl]-6-methyl-3H,4H-thieno[2,3-d]pyrimidin-4-one], which “Avg Response Recovered (%)” value is on record?
Its value is 11%.

`Cc1nc2scc(-c3ccc(Cl)cc3)c2c(=O)n1CC(=O)N1CC(F)(F)C1` [Example 19, 5-(4-chlorophenyl)-3-[2-(3,3-difluoroazetidin-1-yl)-2-oxoethyl]-2-methyl-3H,4H-thieno[2,3-d]pyrimidin-4-one] was tested. Which “Avg Response Recovered (%)” value did it give?
Its value is 5%.

Which “Avg Response Recovered (%)” value does the source give for `O=C(CCn1cnc2scc(-c3ccc(Cl)c(C(F)(F)F)c3)c2c1=O)N1CC(F)(F)C1` [Example 20, 5-[4-chloro-3-(trifluoromethyl)phenyl]-3-[3-(3,3-difluoroazetidin-1-yl)-3-oxopropyl]-3H,4H-thieno[2,3-d]pyrimidin-4-one] here?
Its value is −1%.

For `O=C(Cn1c(C(F)(F)F)nc2scc(-c3ccc(Cl)cc3)c2c1=O)N1CC(F)(F)C1` [Example 21, 5-(4-chlorophenyl)-3-[2-(3,3-difluoroazetidin-1-yl)-2-oxoethyl]-2-(trifluoromethyl)-3H,4H-thieno[2,3-d]pyrimidin-4-one], which “Avg Response Recovered (%)” value is on record?
Its value is 0%.
